Test results as given in patent US12435092B2, “Substituted imidazo[1,2-A]quinazolines as inhibitors of PARG” (858 Therapeutics, Inc., priority 2022, dated 2025).

Biological target: T1, cellular PARG (Homo sapiens, UniProt Q86W56)
T1 construct: endogenous in cells; host or cells: HeLa
Experiment: Nuclear PAR accumulation assay (immunofluorescence high-content imaging)
Format: cell-based
Settings: HeLa cells, 1 hour compound treatment then MMS 50 μg/mL for an additional hour
Method: Compound IC50 values for inhibition of cellular PARG were determined using an immunofluorescence high-content imaging assay for nuclear PAR accumulation. HeLa cells were plated at 15,000 cells/well in a 96-well plate the day before compound treatment and then treated with varying concentrations of test compound and incubated for 1 hour at 37° C.+5% CO2. Following test compound treatment, methylmethane sulfonate (MMS) was added to a final concentration of 50 μg/mL and the cells were incubated for an additional hour. Following treatment, the cells were fixed with ice cold 95% methanol and the plates sealed and placed at −20° C. for 15 minutes. The cells were then washed once with phosphate buffered saline (PBS) and permeabilized with 0.1% Triton-X 100 for 20 minutes at room temperature. The cells were again washed once with PBS and incubated with an anti-poly-ADP ribose (PAR) monoclonal antibody (Millipore Part #AM80 clone 10H) diluted 1:1,000 in 5% fetal bovine serum +0.1% Tween-20+PBS overnight at 4° C. The cells were then washed three times with PBS before incubation with a fluorescently conjugated goat anti-mouse antibody (Invitrogen A32723) diluted 1:500 in 5% FBS+0.1% Tween-20+PBS for 1 hour at room temperature. The cells were again washed three times with PBS and the nuclei labeled by incubating with 1 μg/mL DAPI (4′,6-diamidino-2-phenylindole). Nuclear PAR accumulation was evaluated using high-content fluorescence microscopy. Four fields for each well were acquired at 20× magnification resulting in at least 1,000 cells analyzed per well. Using high-content software (CellReporterXpress) the nuclei were detected and segmented using the DAPI channel and the fluorescence intensity of the PAR-Alexa 488 channel was quantified within the nuclei regions. Both the average intensity per nucleus and percent PAR positive cells were quantified. Percent PAR positive cells were identified by having greater anti-PAR labeling above the threshold set with vehicle DMSO treated control cells. Percent inhibition of PARG by test compounds was calculated by normalizing the data to the 0.1% DMSO and reference compound control values, which represent 0% and 100% inhibition of enzymatic activity, respectively. Concentration-response-curves and IC50 values were generated using four parameter logistic curve fit software.

T1 sequence (Q86W56 whole entry): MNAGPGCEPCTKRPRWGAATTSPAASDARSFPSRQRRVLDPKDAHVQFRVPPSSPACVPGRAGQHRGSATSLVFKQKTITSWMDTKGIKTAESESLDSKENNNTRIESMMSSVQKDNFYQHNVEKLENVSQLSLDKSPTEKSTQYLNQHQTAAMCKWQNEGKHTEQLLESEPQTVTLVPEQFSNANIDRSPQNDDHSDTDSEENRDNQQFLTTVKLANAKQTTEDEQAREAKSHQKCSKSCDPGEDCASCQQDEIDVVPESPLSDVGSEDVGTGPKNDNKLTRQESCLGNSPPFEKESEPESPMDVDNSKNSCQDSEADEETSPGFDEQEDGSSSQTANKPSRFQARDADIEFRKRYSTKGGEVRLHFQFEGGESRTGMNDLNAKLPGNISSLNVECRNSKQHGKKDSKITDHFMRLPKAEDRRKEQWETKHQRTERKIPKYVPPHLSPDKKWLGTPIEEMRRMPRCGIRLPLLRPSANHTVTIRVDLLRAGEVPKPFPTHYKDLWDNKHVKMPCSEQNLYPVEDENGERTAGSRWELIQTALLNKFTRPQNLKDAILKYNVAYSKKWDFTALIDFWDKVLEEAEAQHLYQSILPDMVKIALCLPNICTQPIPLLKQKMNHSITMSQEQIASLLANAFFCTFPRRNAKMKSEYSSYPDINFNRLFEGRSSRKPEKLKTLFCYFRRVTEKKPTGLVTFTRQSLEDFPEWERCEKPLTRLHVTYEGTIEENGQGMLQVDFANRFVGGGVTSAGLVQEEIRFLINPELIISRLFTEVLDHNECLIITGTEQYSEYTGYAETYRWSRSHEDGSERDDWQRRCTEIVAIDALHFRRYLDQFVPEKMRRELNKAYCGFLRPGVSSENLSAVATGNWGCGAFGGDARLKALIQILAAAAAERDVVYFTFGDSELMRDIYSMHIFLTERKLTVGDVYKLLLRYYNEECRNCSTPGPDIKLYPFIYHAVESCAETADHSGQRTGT

Row | IC50 [nM] | SMILES
1 | 1000 to 10000 | C[C@@H]1CN=C2N(CC3CC(=O)N(C)C3)C(=O)c3cc(S(=O)(=O)NC4(C)CC4)ccc3N21 (single isomer, unassigned) [Example 123]
2 | 1000 to 10000 | CC(c1cnn(C)c1)N1C(=O)c2cc(S(=O)(=O)NC3(C)CC3)ccc2N2C1=NC[C@H]2C (single isomer, unassigned) [Example 125]
3 | 1000 to 10000 | CC(c1cnn(C)c1)N1C(=O)c2cc(S(=O)(=O)NC3(C)CC3)ccc2N2C1=NC[C@H]2C (single isomer, unassigned) [Example 126]
4 | 100 to 1000 | C[C@@H]1CN=C2N(Cc3cnn(CCO)c3)C(=O)c3cc(S(=O)(=O)NC4(C)CC4)ccc3N21 [Example 1, (R)-4-((1-(2-hydroxyethyl)-1H-pyrazol-4-yl)methyl)-1-methyl-N-(1-methylcyclopropyl)-5-oxo-1,2,4,5-tetrahydroimidazo[1,2-a]quinazoline-7-sulfonamide]
5 | 100 to 1000 | C[C@@H]1CN=C2N(Cc3cnn(C)c3)C(=O)c3cc(S(=O)(=O)NC4(C#N)CC4)ccc3N21 [Example 2, (R)—N-(1-cyanocyclopropyl)-1-methyl-4-((1-methyl-1H-pyrazol-4-yl)methyl)-5-oxo-1,2,4,5-tetrahydroimidazo[1,2-a]quinazoline-7-sulfonamide]
6 | 100 to 1000 | C[C@@H]1CN=C2N(CC3CC3)C(=O)c3cc(S(=O)(=O)NC4(C)CC4)ccc3N21 [Example 3, (R)-4-(cyclopropylmethyl)-1-methyl-N-(1-methylcyclopropyl)-5-oxo-1,2,4,5-tetrahydroimidazo[1,2-a]quinazoline-7-sulfonamide]
7 | 100 to 1000 | C[C@@H]1CN=C2N(Cc3cccnc3)C(=O)c3cc(S(=O)(=O)NC4(C)CC4)ccc3N21 [Example 4, (R)-1-methyl-N-(1-methylcyclopropyl)-5-oxo-4-(pyridin-3-ylmethyl)-1,2,4,5-tetrahydroimidazo[1,2-a]quinazoline-7-sulfonamide]
8 | 100 to 1000 | Cc1cc(CN2C(=O)c3cc(S(=O)(=O)NC4(C)CC4)ccc3N3C2=NC[C@H]3C)n[nH]1 [Example 5, (R)-1-methyl-4-((5-methyl-1H-pyrazol-3-yl)methyl)-N-(1-methylcyclopropyl)-5-oxo-1,2,4,5-tetrahydroimidazo[1,2-a]quinazoline-7-sulfonamide]
9 | 100 to 1000 | C[C@@H]1CN=C2N(Cc3cn[nH]c3)C(=O)c3cc(S(=O)(=O)NC4(C)CC4)ccc3N21 [Example 6, (R)-4-((1H-pyrazol-4-yl)methyl)-1-methyl-N-(1-methylcyclopropyl)-5-oxo-1,2,4,5-tetrahydroimidazo[1,2-a]quinazoline-7-sulfonamide]
10 | ≤ 100 | Cc1noc(C)c1CN1C(=O)c2cc(S(=O)(=O)NC3(C)CC3)ccc2N2C1=NC[C@H]2C [Example 8, (R)-4-((3,5-dimethylisoxazol-4-yl)methyl)-1-methyl-N-(1-methylcyclopropyl)-5-oxo-1,2,4,5-tetrahydroimidazo[1,2-a]quinazoline-7-sulfonamide]
11 | 100 to 1000 | C#C[C@H]1CN=C2N(Cc3cc(C)no3)C(=O)c3cc(S(=O)(=O)NC4(C)CC4)ccc3N21 [Example 9, (S)-1-ethynyl-N-(1-methylcyclopropyl)-4-((3-methylisoxazol-5-yl)methyl)-5-oxo-1,2,4,5-tetrahydroimidazo[1,2-a]quinazoline-7-sulfonamide]
12 | ≤ 100 | C#C[C@@H]1CN=C2N(Cc3cc(C)no3)C(=O)c3cc(S(=O)(=O)NC4(C)CC4)ccc3N21 [Example 10, (R)-1-ethynyl-N-(1-methylcyclopropyl)-4-((3-methylisoxazol-5-yl)methyl)-5-oxo-1,2,4,5-tetrahydroimidazo[1,2-a]quinazoline-7-sulfonamide]
13 | > 10000 | Cc1cc(CN2C(=O)c3cc(S(=O)(=O)NC4(C)CC4)ccc3N3C2=NC[C@@H]3C(C)C)on1 [Example 11, (S)-1-isopropyl-N-(1-methylcyclopropyl)-4-((3-methylisoxazol-5-yl)methyl)-5-oxo-1,2,4,5-tetrahydroimidazo[1,2-a]quinazoline-7-sulfonamide]
14 | 100 to 1000 | Cc1cc(CN2C(=O)c3cc(S(=O)(=O)NC4(C)CC4)ccc3N3C2=NC[C@H]3C(C)C)on1 [Example 12, (R)-1-isopropyl-N-(1-methylcyclopropyl)-4-((3-methylisoxazol-5-yl)methyl)-5-oxo-1,2,4,5-tetrahydroimidazo[1,2-a]quinazoline-7-sulfonamide]
15 | 1000 to 10000 | CC[C@H]1CN=C2N(Cc3c(C)noc3C)C(=O)c3cc(S(=O)(=O)NC4(C)CC4)ccc3N21 [Example 13, (S)-4-((3,5-dimethylisoxazol-4-yl)methyl)-1-ethyl-N-(1-methylcyclopropyl)-5-oxo-1,2,4,5-tetrahydroimidazo[1,2-a]quinazoline-7-sulfonamide]
16 | ≤ 100 | CC[C@@H]1CN=C2N(Cc3c(C)noc3C)C(=O)c3cc(S(=O)(=O)NC4(C)CC4)ccc3N21 [Example 14, (R)-4-((3,5-dimethylisoxazol-4-yl)methyl)-1-ethyl-N-(1-methylcyclopropyl)-5-oxo-1,2,4,5-tetrahydroimidazo[1,2-a]quinazoline-7-sulfonamide]
17 | 100 to 1000 | C#C[C@H]1CN=C2N(Cc3cnc(C)s3)C(=O)c3cc(S(=O)(=O)NC4(C)CC4)ccc3N21 [Example 15, (S)-1-ethynyl-N-(1-methylcyclopropyl)-4-((2-methylthiazol-5-yl)methyl)-5-oxo-1,2,4,5-tetrahydroimidazo[1,2-a]quinazoline-7-sulfonamide]
18 | ≤ 100 | C#C[C@@H]1CN=C2N(Cc3cnc(C)s3)C(=O)c3cc(S(=O)(=O)NC4(C)CC4)ccc3N21 [Example 16, (R)-1-ethynyl-N-(1-methylcyclopropyl)-4-((2-methylthiazol-5-yl)methyl)-5-oxo-1,2,4,5-tetrahydroimidazo[1,2-a]quinazoline-7-sulfonamide]
19 | 100 to 1000 | Cc1ncc(CN2C(=O)c3cc(S(=O)(=O)NC4(C)CC4)ccc3N3C2=NC[C@@H]3C2CC2)s1 [Example 17, (S)-1-cyclopropyl-N-(1-methylcyclopropyl)-4-((2-methylthiazol-5-yl)methyl)-5-oxo-1,2,4,5-tetrahydroimidazo[1,2-a]quinazoline-7-sulfonamide]
20 | ≤ 100 | Cc1ncc(CN2C(=O)c3cc(S(=O)(=O)NC4(C)CC4)ccc3N3C2=NC[C@H]3C2CC2)s1 [Example 18, (R)-1-cyclopropyl-N-(1-methylcyclopropyl)-4-((2-methylthiazol-5-yl)methyl)-5-oxo-1,2,4,5-tetrahydroimidazo[1,2-a]quinazoline-7-sulfonamide]
21 | > 10000 | Cc1ncc(CN2C(=O)c3cc(S(=O)(=O)NC4(C)CC4)ccc3N3C2=NC[C@@H]3C(C)C)s1 [Example 19, (S)-1-isopropyl-N-(1-methylcyclopropyl)-4-((2-methylthiazol-5-yl)methyl)-5-oxo-1,2,4,5-tetrahydroimidazo[1,2-a]quinazoline-7-sulfonamide]
22 | ≤ 100 | Cc1ncc(CN2C(=O)c3cc(S(=O)(=O)NC4(C)CC4)ccc3N3C2=NC[C@H]3C(C)C)s1 [Example 20, (R)-1-isopropyl-N-(1-methylcyclopropyl)-4-((2-methylthiazol-5-yl)methyl)-5-oxo-1,2,4,5-tetrahydroimidazo[1,2-a]quinazoline-7-sulfonamide]
23 | 100 to 1000 | Cc1cc(CN2C(=O)c3cc(S(=O)(=O)NC4(C)CC4)ccc3N3C2=NC[C@@H]3C2CC2)on1 [Example 21, (S)-1-cyclopropyl-N-(1-methylcyclopropyl)-4-((3-methylisoxazol-5-yl)methyl)-5-oxo-1,2,4,5-tetrahydroimidazo[1,2-a]quinazoline-7-sulfonamide]
24 | ≤ 100 | Cc1cc(CN2C(=O)c3cc(S(=O)(=O)NC4(C)CC4)ccc3N3C2=NC[C@H]3C2CC2)on1 [Example 22, (R)-1-cyclopropyl-N-(1-methylcyclopropyl)-4-((3-methylisoxazol-5-yl)methyl)-5-oxo-1,2,4,5-tetrahydroimidazo[1,2-a]quinazoline-7-sulfonamide]
25 | 1000 to 10000 | CC[C@H]1CN=C2N(Cc3cc(C)no3)C(=O)c3cc(S(=O)(=O)NC4(C)CC4)ccc3N21 [Example 23, (S)-1-ethyl-N-(1-methylcyclopropyl)-4-((3-methylisoxazol-5-yl)methyl)-5-oxo-1,2,4,5-tetrahydroimidazo[1,2-a]quinazoline-7-sulfonamide]
26 | ≤ 100 | CC[C@@H]1CN=C2N(Cc3cc(C)no3)C(=O)c3cc(S(=O)(=O)NC4(C)CC4)ccc3N21 [Example 24, (R)-1-ethyl-N-(1-methylcyclopropyl)-4-((3-methylisoxazol-5-yl)methyl)-5-oxo-1,2,4,5-tetrahydroimidazo[1,2-a]quinazoline-7-sulfonamide]
27 | > 10000 | CCN1C(=O)c2cc(S(=O)(=O)NC3(C)CC3)ccc2N2C1=NC[C@@H]2C1CC1 [Example 25, (S)-1-cyclopropyl-4-ethyl-N-(1-methylcyclopropyl)-5-oxo-1,2,4,5-tetrahydroimidazo[1,2-a]quinazoline-7-sulfonamide]
